pIC50: −log10 of the molar value. The source made the active and inactive calls.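 How the source made its calls: active means half-maximal concentration for changing protein binding to DNA, from the fitted dose curve, below 10 micromolar; inactive means the rest.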

For this assay, the target named is Nuclear receptor subfamily 1 group D member 1 (Homo sapiens) (UniProt P20393). Put plainly: Rev-erbα–DNA interaction modulators – biochemical, FITC-DNA, fluorescence polarization, dose response (AID 1259321). The following applies: Rev-erb alpha-FITC-DNA binding. In general terms: In fluorescence polarisation assays a small probe gives low polarisation when free and higher when bound to something large.
Nuclear receptor subfamily 1 group D member 1 (Homo sapiens), sequence (P20393 whole entry, looked up): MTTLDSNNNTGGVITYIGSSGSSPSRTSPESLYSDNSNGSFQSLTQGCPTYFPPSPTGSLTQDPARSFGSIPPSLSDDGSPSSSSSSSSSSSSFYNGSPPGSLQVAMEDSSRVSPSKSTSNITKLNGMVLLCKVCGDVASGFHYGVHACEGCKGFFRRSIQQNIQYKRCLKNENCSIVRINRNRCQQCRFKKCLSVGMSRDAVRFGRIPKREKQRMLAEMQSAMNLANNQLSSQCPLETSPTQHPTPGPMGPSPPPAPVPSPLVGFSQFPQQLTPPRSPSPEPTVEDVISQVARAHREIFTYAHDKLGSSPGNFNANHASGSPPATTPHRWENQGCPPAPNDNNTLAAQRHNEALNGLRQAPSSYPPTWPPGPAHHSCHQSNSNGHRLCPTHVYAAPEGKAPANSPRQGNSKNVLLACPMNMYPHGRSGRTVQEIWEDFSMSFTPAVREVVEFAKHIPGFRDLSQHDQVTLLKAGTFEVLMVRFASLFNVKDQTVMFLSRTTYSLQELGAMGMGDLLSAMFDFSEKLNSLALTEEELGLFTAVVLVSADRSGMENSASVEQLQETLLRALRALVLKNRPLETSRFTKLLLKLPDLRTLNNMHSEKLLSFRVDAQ
In general, IC50 refers to the midpoint of a concentration-inhibition curve. Consider `COc1ccc2[nH]c(C(=O)Nc3ccc(F)cc3Br)cc2c1`, for which the IC50 is > 40 µM (inactive).

Usually pIC50 stands for the IC50 on a negative log10 scale, so that one unit is a factor of ten. Regarding `O=S(=O)(c1ccc2nc(N3CCN(c4ccccc4F)CC3)ccc2c1)N1CCCCC1`, the pIC50 is 6.08.

`C[n+]1ccc(/C=C/c2c[nH]c3ccccc23)cc1`: the IC50 result is “inactive”.

In the case of `CCN(CC)C(=O)c1ccc(/C=C/c2c[nH]c3ccccc23)[n+](C)c1`, the IC50 result was “inactive”.

`O=C(Nc1ccc2c(c1)C(=O)NC2=O)c1cc(Cl)ccc1Cl`: the IC50 entry was “inactive”.

As for `COc1ccc(-c2cc(C(=O)Nc3cccnc3Cl)no2)cc1OC`, the negative-log IC50 (pIC50) is 5.72.

As for `N#CC(C#N)=C1C=C2C=C(N3CCOCC3)CCC2CC1` (stereo unspecified), the pIC50 was 5.37.

As for `CCn1cc(C2N3CC4(C)CN2CC(C)(C3)C4=O)c2ccccc21` (stereo unspecified), the negative logarithm of the IC50 (pIC50) was 5.55.

Regarding `COc1ccccc1-c1nc(SCC(=O)N(C)c2ccccc2)c2c(=O)n(C)c(=O)n(C)c2n1`, the pIC50 was 5.50.

Turning to `CCOC(=O)Nc1ccc2c(COC(=O)CNS(=O)(=O)c3ccc(NC(C)=O)cc3)cc(=O)oc2c1`, the pIC50 is 6.26.

Consider `COc1ccc(-c2cc(C(F)(F)F)c(C#N)c(SCC(=O)Nc3nc(C)co3)n2)cc1`, for which the negative logarithm of the IC50 (pIC50) was 5.44.

Take `COc1cc2oc(=O)cc(-c3ccc(-c4ccc(CO)cc4)cc3)c2c(OC)c1OC`: the negative-log IC50 (pIC50) was 5.23.

Turning to `COc1cc(OC)cc(-c2c(Sc3ccccc3)c3cc(-c4ccc(OC)c(F)c4)ccc3n2C)c1`, the pIC50 is 5.88.

For `O=C1c2cccc3c(N4CCCCC4)ccc(c23)C(=O)N1c1cccc(O)c1`, the IC50 is > 40 µM (inactive).

Regarding `Cn1c(=O)c(NCCO)c2c3c(cccc31)C(=O)c1ccccc1-2`, the pIC50 was 5.44.

Regarding `COc1ccc(-c2c(C#Cc3ccsc3)c3cc(-c4ccc5c(c4)OCCO5)ccc3n2C)cc1`, the IC50 was > 40 µM (inactive).

As for `COc1ccc2c(c1)c(/C=C/c1cc[n+](C)cc1)cn2C`, the IC50 result is “inactive”.

Turning to `Cc1cc(C)n2nc(-c3ccc(Cl)cc3)cc2n1`, the pIC50 is 5.79.

`COc1ccccc1-c1ccc2c(c1)C(C)(Cc1cccc(F)c1)C(=O)N2` (stereo unspecified): the negative logarithm of the IC50 (pIC50) was 5.15.

For `Cc1c(-c2ccc(Cl)cc2)oc(=O)c2c(N)n(-c3ccccc3)nc12`, the pIC50 is 5.40.

Regarding `Cc1nc(SCC(=O)Nc2ccc(F)cc2)c2oc3ccccc3c2n1`, the IC50 entry is “inactive”.

Regarding `Cc1cccc2cc(C#N)c(SCC(=O)N3CCC(C)CC3)nc12`, the pIC50 is 5.90.

As to `O=C(Nc1nnc(C2CCCCC2)s1)c1ccc(Br)s1`, the IC50 result is “inactive”.

Turning to `Cc1cccc2cc(C(c3nnnn3Cc3ccccc3)N3CCN(c4ccccc4)CC3)c(=O)[nH]c12` (stereo unspecified), the pIC50 is 5.10.

`N#Cc1c(-c2ccc(F)cc2)cc(C2CC2)nc1SCC(=O)c1cccs1`: the IC50 is > 40 µM (inactive).

As for `COc1ccc(-c2cc(-c3ccc(C)cc3)nc(SCc3nnc(-c4ccccc4)o3)c2C#N)cc1OC`, the pIC50 was 5.06.

In the case of `O=[N+]([O-])c1ccc(-c2nc(-c3cccs3)c(-c3cccs3)[nH]2)cc1`, the IC50 entry is “inactive”.

For `O=C(CCCC(=O)OCC(=O)c1cccs1)Nc1ccc(Oc2ccccc2)cc1`, the IC50 entry is “inactive”.

For the compound `Cc1ccc(C)c2nc(SCC(=O)N3CCCc4ccccc43)c(C#N)cc12`, the pIC50 is 5.21.

Take `COC(=O)c1ccccc1NC(=O)c1cn(-c2ccc(C)c(C)c2)c(=O)c2ccccc12`: the IC50 entry is “inactive”.

For `Cc1ccc(-c2nn(C)c(=O)c3ccccc23)cc1S(=O)(=O)N1CCCC1`, the IC50 is > 40 µM (inactive).

With `Clc1ccc(-c2ccnc(Oc3cc(Cl)ccc3Cl)n2)cc1`, the IC50 is > 40 µM (inactive).

`O=C(CCn1c(=O)c2cccn2c2cccnc21)NCc1cccc(Cl)c1`: the IC50 was > 40 µM (inactive).

As to `Cc1n[nH]c(C)c1N1C(=O)c2cccc3c(N4CCCCCC4)ccc(c23)C1=O`, the pIC50 was 5.44.

Consider `COCCCNc1nc2c(-c3ccc(C)cc3)nnn2c2ccccc12`, for which the pIC50 was 5.29.

Consider `Cc1cc(C)c2nc(SCC(=O)NCC3CCCO3)c(C#N)cc2c1` (stereo unspecified), for which the IC50 entry was “inactive”.

For `COC(=O)c1ccc(Cn2ccc3ccc(-c4ccc5ccn(C(=O)c6ccccc6C)c5c4)cc32)cc1`, the negative logarithm of the IC50 (pIC50) is 5.01.

For the compound `C=CCn1c(=NC(=O)c2cccs2)sc2cc(NC(C)=O)ccc21`, the IC50 result was “inactive”.

Take `O=C(Nc1nc2ccsc2c(=O)s1)c1ccc(Cl)cc1`: the pIC50 is 5.11.

Take `CN(C)c1ccc2nc3c(=O)[nH]c(=O)nc-3n(CC(O)C(O)C(O)CO)c2c1` (stereo unspecified): the pIC50 was 6.10.

On to `COc1ccc(-n2c(SCC(=O)Nc3cc(C)on3)nc3c([nH]c4ccccc43)c2=O)cc1`, for which the IC50 result is “inactive”.

`Cc1onc(-c2ccccc2)c1C(=O)Nc1nc(-c2cc(F)ccc2F)cs1`: the negative-log IC50 (pIC50) is 5.37.

With `O=C1c2cccc3c(O)ccc(c23)C(=O)N1Cc1ccccc1`, the IC50 entry is “inactive”.

With `O=C(CSc1ncnc2c1oc1ccccc12)Nc1ccccc1F`, the pIC50 was 5.11.

Take `CN(C)c1ccc(N=Nc2ccccc2C(=O)OCC(=O)NCC2CCCCC2)cc1`: the pIC50 was 5.11.

For the compound `N#Cc1c(N)nc(SCC(=O)NCCc2ccccc2)c(C#N)c1-c1cccs1`, the negative logarithm of the IC50 (pIC50) is 5.88.

In the case of `O=C(CSc1nnc(-c2cccs2)n1-c1ccccc1)N1CCCc2ccccc21`, the IC50 was > 40 µM (inactive).

For `CCN1C(=O)/C(=C\N2CCN(c3cccc(Cl)c3)CC2)SC1=S`, the negative-log IC50 (pIC50) was 5.05.

Regarding `O=C(CSc1nc2ccccc2c(=O)n1-c1ccc(F)cc1)Nc1ccc(Cl)c(S(=O)(=O)N2CCOCC2)c1`, the negative-log IC50 (pIC50) is 5.62.

As for `Cc1ccc(-c2nn3c(C)nnc3s2)cc1NC(=O)c1ccc(-c2ccc(Cl)cc2Cl)o1`, the IC50 was > 40 µM (inactive).

Regarding `COc1nc(-c2ccc(Cl)cc2)ccc1-c1noc(-c2cccs2)n1`, the IC50 result was “inactive”.

For the compound `CC1(C)Cc2c(c(N3CCOCC3)nc3sc4c(NN)ncnc4c23)CS1`, the IC50 is > 40 µM (inactive).

On to `CCN(CC)c1ccc(/C=C/c2cccc[n+]2C)c(OC)c1`, for which the pIC50 was 5.14.

`COc1cccc(NC(=O)CSc2ncnc3c2oc2ccccc23)c1`: the IC50 is > 40 µM (inactive).

Consider `COc1ccc(-n2c(SCC(=O)NC3CCCCC3)nc3ccsc3c2=O)cc1`, for which the pIC50 was 5.29.

Turning to `Cc1cc2cc(C#N)c(SCC(=O)Nc3nonc3C)nc2cc1C`, the pIC50 is 5.88.

With `Cc1cc(OC(C)C(=O)NCc2ccccn2)c2c(C)c(Cc3ccccc3)c(=O)oc2c1` (stereo unspecified), the negative-log IC50 (pIC50) is 5.60.

As for `N#Cc1ccccc1Sc1ccccc1C(=O)OCC(=O)NC1CCCCC1`, the IC50 entry was “inactive”.

For the compound `CCOC(=O)c1cc2c(=O)c3ccccc3oc2nc1C`, the IC50 was > 40 µM (inactive).

With `C=CCNC(=O)c1ccc(-c2nc(-c3ccc(Cl)cc3Cl)cs2)cc1`, the pIC50 is 5.34.

Consider `CCOc1ccc(NC(=O)CCSc2ccc3ccccc3n2)cc1`, for which the negative-log IC50 (pIC50) is 5.29.

Take `COc1ccc(C2=NN(C(=O)CSc3ncccn3)C(c3cccc(OC)c3OC)C2)cc1` (stereo unspecified): the pIC50 is 5.82.

For `CCCC1(c2ccccc2)NC(=O)N(CC(=O)Nc2sc(-c3ccccc3)cc2C(=O)OCC)C1=O` (stereo unspecified), the IC50 entry was “inactive”.

As for `CCN1/C(=C/c2ccc3cc(C)ccc3[n+]2CC)Sc2cc(C)ccc21`, the IC50 was > 40 µM (inactive).

For `COc1ccc2c(/C=C/c3cc[n+](C)cc3)c[nH]c2c1`, the IC50 entry is “inactive”.

On to `Cc1c(Br)ccc(NC(=O)Cn2nc(-c3cccs3)ccc2=O)c1C`, for which the pIC50 was 5.32.

Take `Cn1c(SCC(=O)Nc2cccc(F)c2)nnc1-c1cc2ccccc2o1`: the IC50 result is “inactive”.

In the case of `CCC(=O)c1ccc(N2CCN(S(=O)(=O)c3ccccc3)CC2)c(F)c1`, the pIC50 was 5.53.

`CCc1nc(SCC(=O)NCc2ccco2)c2c3c(sc2n1)CCCC3`: the IC50 entry is “inactive”.

On to `COc1ccc(NC(=O)c2sc3nc(N4CCCC4)c4c(c3c2N)CC(C)(C)OC4)c(OC)c1`, for which the IC50 was > 40 µM (inactive).

For the compound `Cn1c(N)c(C(=O)CSc2nn(-c3ccc(F)cc3)c(=S)s2)c(=O)n(C)c1=O`, the IC50 is > 40 µM (inactive).

As to `N#Cc1c(-c2cccs2)cc(C2CC2)nc1SCC(N)=O`, the negative-log IC50 (pIC50) was 5.87.

For `CCC[C@H]1[C@@H](N(C)Cc2cccs2)CC[C@@]23CCCN2C(=O)CCC[C@@H]13`, the IC50 entry is “inactive”.

With `CCC(C)(C)c1ccc(OCCCC[n+]2ccc(C)cc2)c(C(C)(C)CC)c1`, the IC50 is > 40 µM (inactive).

As to `COc1ccc(C(C)=O)cc1CSc1nc2ccccc2c(=O)n1-c1ccccc1`, the IC50 was > 40 µM (inactive).

On to `CC1CCN(S(=O)(=O)c2ccc3nc(N4CCN(c5ccccc5)CC4)ccc3c2)CC1`, for which the pIC50 was 5.08.

Turning to `CCc1cc2cc(C(=O)Nc3ccc(F)cc3)sc2s1`, the negative-log IC50 (pIC50) is 5.15.

For the compound `Cc1ccc(S(=O)(=O)c2c[nH]c3ccc(Cl)cc3c2=O)cc1`, the IC50 was > 40 µM (inactive).

For the compound `CC1=NN(c2ccccc2)C(=O)/C1=C\C=C1\N(C)c2ccccc2C1(C)C`, the IC50 entry was “inactive”.

In the case of `Nc1ccc2c3c(cccc13)C(=O)N(c1ccccc1)C2=O`, the IC50 result is “inactive”.

Take `O=c1sc(N2CCN(c3ccc(F)cc3)CC2)nc2ccsc12`: the IC50 entry is “inactive”.

Take `CCCOc1ccc(/C(CC)=N/NC(=O)C2(C)CC2(Br)Br)cc1` (stereo unspecified): the IC50 entry was “inactive”.

As to `Cc1cccc(NC(=O)CSc2ncnc3c2oc2ccccc23)c1`, the pIC50 is 6.21.

`CCOC(=O)c1ccc(CNC(=O)CSc2nc(NC(=O)c3ccccc3)c3c(C)c(C)oc3n2)cc1`: the IC50 entry was “inactive”.

On to `Fc1ccc2nc(Nc3nc4cc5c(cc4s3)OCCO5)sc2c1`, for which the pIC50 is 5.16.

For the compound `O=C(CCCn1c(=S)[nH]c2cc3c(cc2c1=O)OCO3)NCc1cccc(Cl)c1`, the IC50 is > 40 µM (inactive).

Regarding `O=C(CSc1nnnn1-c1ccc2c(c1)OCCO2)c1cccc2c1OCCO2`, the negative logarithm of the IC50 (pIC50) was 5.53.

Consider `COc1ccc2c(C)cc(SCC(=O)Nc3cccnc3Cl)nc2c1`, for which the IC50 was > 40 µM (inactive).

`CCc1ccc2n(-c3ccc(OC)cc3)c([S-])c(C(=O)Nc3cc(C)cc(C)c3)[n+]2c1`: the negative logarithm of the IC50 (pIC50) is 5.57.

Regarding `Cc1c(C(=O)Nc2ccncc2)sc2nc(-c3ccc(F)cc3)cn12`, the pIC50 was 5.42.

`Oc1ccccc1-c1nc(N2CCCC2)c2ccccc2n1`: the pIC50 was 5.68.

These data come from PubChem BioAssay AID1259321 (Sanford-Burnham Center for Chemical Genomics, 2017).
